This is an account of results in patent US10485235B2, “Aryloxypyrimidinyl ethers as herbicides” (FMC Corporation, priority 2015, dated 2019).

The subject of data set [1] is ragweed (common ragweed, Ambrosia elatior). The data set is described as follows: Test A preemergence, ragweed. In kind it is in vivo. Particulars: Ambrosia artemisiifolia, pre-emergence, 240 h, Preemergence, 0 to 100 scale (0 no effect, 100 complete control), read-out: Plant response rating, Ragweed; for pest or weed control at 31 g/ha: 31 g ai/ha; for pest or weed control at 125 g/ha: 125 g ai/ha. In a few lines:
(§1)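 Approximately 10-day greenhouse assay. Formulated chemical (non-phytotoxic solvent plus surfactant) applied preemergence to soil over seeds or postemergence to plants of 2 to 10 cm. Endpoint: visual percent control, 0–100.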

For data set [2] the test system is unchanged. The data set is described as follows: Test A postemergence, ragweed. Format: in vivo. Particulars: Ambrosia artemisiifolia, post-emergence, 240 h, postemergence, 0 to 100 scale, 0 is no effect, 100 is complete control, approximately 10 days, read-out: Plant response rating, Ragweed; for pest or weed control at 31 g/ha: 31 g ai/ha; for pest or weed control at 125 g/ha: 125 g ai/ha. In a few lines: as §1

The test system of data set [3] is corn (Zea mays). The data set is described as follows: Test A postemergence, corn. In kind it is in vivo. Particulars: Zea mays, post-emergence, 240 h, postemergence, 0 to 100 scale, 0 is no effect, 100 is complete control, approximately 10 days; for Corn plant response rating (crop injury, 0 = no effect, 100 = complete kill) at 31 g/ha: 31 g ai/ha; for Corn plant response rating (crop injury, 0 = no effect, 100 = complete kill) at 125 g/ha: 125 g ai/ha. In a few lines: as §1

Data set [4] concerns barnyardgrass (Echinochloa crus-galli). Nature of the data set: Test A postemergence, barnyardgrass. In kind it is in vivo. Particulars: Echinochloa crus-galli, post-emergence, 240 h, postemergence, 0 to 100 scale, 0 is no effect, 100 is complete control, approximately 10 days, read-out: Plant response rating, Barnyardgrass; for pest or weed control at 31 g/ha: 31 g ai/ha; for pest or weed control at 125 g/ha: 125 g ai/ha. In a few lines:
as §1

The test system is the same in data set [5]. Nature of the data set: Test A preemergence, barnyardgrass. Format: in vivo. The note with it: Echinochloa crus-galli, pre-emergence, 240 h, Preemergence, 0 to 100 scale (0 no effect, 100 complete control), read-out: Plant response rating, Barnyardgrass; for pest or weed control at 31 g/ha: 31 g ai/ha; for pest or weed control at 125 g/ha: 125 g ai/ha. The method in brief: as §1

Data set [6] deals with ducksalad (Heteranthera limosa). Nature of the data set: Test B flooded paddy test, ducksalad. Particulars: Heteranthera limosa; 250 g ai/ha, Flood; visual rating after 13 to 15 days; scale 0 to 100, 0 is no effect, 100 is complete control; read-out: Plant response rating, Ducksalad. In kind it is in vivo. In a few lines:
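Plants grown to 2-leaf stage, pots flooded to 3 cm above soil and compound applied directly to paddy water, depth maintained throughout. After 13-15 days in greenhouse, visual rating against untreated controls on 0-100 scale (0 no effect, 100 complete control).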

Structures are written as SMILES.

As to `N#Cc1cccc(Oc2ncc(F)cn2)c1OCCCC(F)(F)F` [Compound 4, 3-[(5-fluoro-2-pyrimidinyl)oxy]-2-(4,4,4-trifluorobutoxy)benzonitrile], the melting point fell in the range of 70 to 74 °C. In addition, in data set [1], the pest or weed control at 31 g/ha stood at 10% and the pest or weed control at 125 g/ha was 30%. Moreover, in data set [2], the pest or weed control at 31 g/ha is 0% and the pest or weed control at 125 g/ha was determined as 20%. In data set [3], this compound showed a Corn plant response rating (crop injury, 0 = no effect, 100 = complete kill) at 31 g/ha of 40% and a Corn plant response rating (crop injury, 0 = no effect, 100 = complete kill) at 125 g/ha of 90%. In addition, in data set [4], the pest or weed control at 31 g/ha was 20% and the pest or weed control at 125 g/ha worked out at 90%. For the same compound, in data set [5], the pest or weed control at 31 g/ha worked out at 60% and the pest or weed control at 125 g/ha was 100%. Besides, in data set [6], the pest or weed control at 250 g/ha is 90%.

`N#Cc1cccc(Oc2ncc(Cl)cn2)c1OCCCC(F)(F)F` [Compound 5, 3-[(5-chloro-2-pyrimidinyl)oxy]-2-(4,4,4-trifluorobutoxy)benzonitrile] yielded a melting point of 51 to 54 °C. Further, in data set [1], the pest or weed control at 31 g/ha is 10% and the pest or weed control at 125 g/ha worked out at 10%. In data set [2], the pest or weed control at 31 g/ha is 10% and the pest or weed control at 125 g/ha is 30%. In data set [3], the Corn plant response rating (crop injury, 0 = no effect, 100 = complete kill) at 31 g/ha came out at 50% and the Corn plant response rating (crop injury, 0 = no effect, 100 = complete kill) at 125 g/ha was 80%. In data set [4], the pest or weed control at 31 g/ha amounted to 70% and the pest or weed control at 125 g/ha is 100%. In data set [5], the pest or weed control at 31 g/ha amounted to 80% and the pest or weed control at 125 g/ha is 100%. In addition, the pest or weed control at 250 g/ha in data set [6] was found to be 90%.

Consider `N#Cc1cccc(Oc2ncc(Cl)cn2)c1OC/C=C/C(F)(F)F` [Compound 8, 3-[(5-chloro-2-pyrimidinyl)oxy]-2-[[(2E)-4,4,4-trifluoro-2-buten-1-yl]oxy]benzonitrile], for which the melting point lay in the range of 102 to 106 °C. Further, in data set [1], the pest or weed control at 31 g/ha was determined as 0% and the pest or weed control at 125 g/ha amounted to 0%. In data set [2], the pest or weed control at 31 g/ha was determined as 0% and the pest or weed control at 125 g/ha was 10%. Besides, in data set [3], the Corn plant response rating (crop injury, 0 = no effect, 100 = complete kill) at 31 g/ha was 10% and the Corn plant response rating (crop injury, 0 = no effect, 100 = complete kill) at 125 g/ha turned out to be 20%. In data set [4], the pest or weed control at 31 g/ha is 20% and the pest or weed control at 125 g/ha was determined as 60%. Also, in data set [5], the pest or weed control at 31 g/ha was found to be 30% and the pest or weed control at 125 g/ha was 100%. In addition, the pest or weed control at 250 g/ha in data set [6] came to 75%.

As to `FC(F)(F)COc1c(I)cccc1Oc1ncc(Cl)cn1` [Compound 65], the melting point was in the range of 87 to 90 °C. In data set [1], the pest or weed control at 31 g/ha stood at 0% and the pest or weed control at 125 g/ha is 0%. For the same compound, in data set [2], the pest or weed control at 31 g/ha is 0% and the pest or weed control at 125 g/ha is 0%. In data set [3], the Corn plant response rating (crop injury, 0 = no effect, 100 = complete kill) at 31 g/ha was found to be 10% and the Corn plant response rating (crop injury, 0 = no effect, 100 = complete kill) at 125 g/ha amounted to 20%. Further, in data set [4], the pest or weed control at 31 g/ha amounted to 0% and the pest or weed control at 125 g/ha is 60%. Moreover, the pest or weed control at 125 g/ha in data set [5] was 70%. Moreover, in data set [6], the pest or weed control at 250 g/ha was 100%.
